Source: publication PMC10489980, “Design of Potent and Salt-Insensitive Antimicrobial Branched Peptides” (Polymers, 2023)
Positions of bridges follow the written chain, without caps; N, C: chain ends. Residues, ends and D or L forms follow the SMILES beside them. Chains are numbered I, II in the order given. *: point of attachment. Fmoc = O=C(OCC1c2ccccc2-c2ccccc21)*

What was measured:
Assay type in all cases: cell-based
[1] = system: Klebsiella oxytoca ATCC 49131; details: ATCC 49131, 3 h
From the text: (§1) Ten organisms obtained from the American Type Culture Collection (ATCC; Rockville, MD) were used for antimicrobial assays. Four Gram-negative bacteria included Escherichia coli ATCC 25922, Pseudomonas aeruginosa ATCC 27853, Klebsiella oxytoca ATCC 49131, and Proteus vulgaris ATCC 49132. The three Gram-positive bacteria were Staphylococcus aureus 29213, Micrococcus luteus ATCC 49,732, and Enterococcus faecalis ATCC 29212. The three fungi were Candida albicans ATCC 37092, Candida kefyr ATCC 37095, and Candida tropicalis ATCC 37097. The clinical isolates were obtained from Singapore General Hospital (SGH). They are Enterococcus faecium, Staphylococcus aureus, Klebsiella pneumoniae, Acinetobacter baumannii, Pseudomonas aeruginosa, and Enterobacter species. The strains were incubated in trypticase soy broth (TSB), which was prepared in double distilled water and autoclaved for sterilization. TSB was purchased from Becton-Dickinson (Cockeysville, MD, USA).
(§2) Antimicrobial Assays. A sensitive and reproducible two-stage radial diffusion antimicrobial assay of Lehrer et al. was employed. A 1–4 × 10^6 colony-forming unit/mL of the test organism was mixed with 10 mL of molten underlay gel solution and poured into Petri dishes to form a uniform layer. The gel solution consisted of 10 mM sodium phosphate buffer, 0.03% TSB, and 0.02% Tween-20, with the addition of 100 mM NaCl in the case of high-salt conditions. Upon gel solidification, gel wells were made by a 3-mm diameter template in an evenly spaced array. A 5 µL aliquot of a serial half-log dilution of test peptides at seven concentrations was added to each well after removal of gel plugs. The dishes were incubated at 37 °C for 3 h to allow peptide diffusion into the underlay gels. Gels were overlaid with 10 mL of 1% agarose in 6% TSB (wt/vol). After additional incubation at 37 °C for 16–24 h, the diameter of the clear zone surrounding the wells (colony-free) was measured under a microscope. Antimicrobial activities were expressed in units (0.1 mm = 1 unit), and the MICs (in µM) were determined from the x-intercepts of the dose-response curves. Experiments were performed in triplicates.

[2] = system: Candida tropicalis ATCC 37097; details: ATCC 37097, 3 h
From the text: as §1, §2

[3] = system: Candida albicans ATCC 37092; details: ATCC 37092, 3 h
From the text: as §1, §2

[4] = system: Enterococcus faecalis ATCC 29212; details: ATCC 29212, 3 h
From the text: as §1, §2

[5] = system: Micrococcus luteus ATCC 49,732; details: ATCC 49, 3 h
From the text: as §1, §2

[6] = system: Staphylococcus aureus 29213; details: 29213, 3 h
From the text: as §1, §2

[7] = system: Pseudomonas aeruginosa ATCC 27853; details: ATCC 27853, 3 h
From the text: as §1, §2

[8] = system: Proteus vulgaris ATCC 49132; details: ATCC 49132, 3 h
From the text: as §1, §2

Candida kefyr ATCC 37095 = details: ATCC 37095, 3 h
From the text: as §1, §2

[9] = system: Escherichia coli ATCC 25922; details: ATCC 25922, 3 h
From the text: as §1, §2

MIC, K. oxytoca, H-Salt [1]	MIC, K. oxytoca, L-Salt [1]	MIC, C. tropicalis, H-Salt [2]	MIC, C. tropicalis, L-Salt [2]	MIC, C. albicans, H-Salt [3]	MIC, C. albicans, L-Salt [3]	MIC, E. faecalis, H-Salt [4]	MIC, E. faecalis, L-Salt [4]	MIC, M. luteus, H-Salt [5]	MIC, M. luteus, L-Salt [5]	MIC, S. aureus, H-Salt [6]	MIC, S. aureus, L-Salt [6]	MIC, P. aeruginosa, H-Salt [7]	MIC, P. aeruginosa, L-Salt [7]	MIC, P. vulgaris, H-Salt [8]	MIC, P. vulgaris, L-Salt [8]	MIC, C. kefyr, H-Salt (Candida kefyr ATCC 37095)	MIC, C. kefyr, L-Salt (Candida kefyr ATCC 37095)	MIC, E. coli, H-Salt [9]	MIC, E. coli, L-Salt [9]	SMILES
0.7 µM	0.7 µM	1.2 µM	0.8 µM	0.8 µM	0.7 µM	0.8 µM	0.5 µM	0.7 µM	0.6 µM	0.7 µM	0.5 µM	0.8 µM	0.7 µM	0.5 µM	0.7 µM	0.7 µM	0.8 µM	0.4 µM	0.6 µM	CC(C)C[C@H](NC(=O)[C@@H](N)CCCNC(=N)N)C(=O)N[C@@H](Cc1ccc(O)cc1)C(=O)N[C@@H](CCCNC(=N)N)C(=O)N[C@@H](CCCCNC(=O)[C@H](CCCCNC(=O)[C@H](CCCCNC(=O)OCC1c2ccccc2-c2ccccc21)NC(=O)[C@H](CCCNC(=N)N)NC(=O)[C@H](Cc1ccc(O)cc1)NC(=O)[C@H](CC(C)C)NC(=O)[C@@H](N)CCCNC(=N)N)NC(=O)[C@H](CCCNC(=N)N)NC(=O)[C@H](Cc1ccc(O)cc1)NC(=O)[C@H](CC(C)C)NC(=O)[C@@H](N)CCCNC(=N)N)C(N)=O [iK3R] (I: H-RLYRK-NH2 / II: H-RLYRK(Fmoc) / III: H-RLYRK; amide I:5-III:C, II:C-III:5)
1.3 µM	0.9 µM	1.3 µM	1.1 µM	0.8 µM	0.7 µM	1.4 µM	1.3 µM	0.8 µM	0.6 µM	0.7 µM	0.8 µM	0.8 µM	0.8 µM	0.7 µM	1.2 µM	0.9 µM	0.9 µM	0.6 µM	0.7 µM	CC(C)C[C@H](NC(=O)[C@@H](N)CCCNC(=N)N)C(=O)N[C@@H](Cc1ccc(O)cc1)C(=O)N[C@@H](CCCNC(=N)N)C(=O)NCCCC[C@H](NC(=O)[C@H](CCCCNC(=O)[C@H](CCCNC(=N)N)NC(=O)[C@H](Cc1ccc(O)cc1)NC(=O)[C@H](CC(C)C)NC(=O)[C@@H](N)CCCNC(=N)N)NC(=O)[C@H](CCCCNC(=O)[C@H](CCCNC(=N)N)NC(=O)[C@H](Cc1ccc(O)cc1)NC(=O)[C@H](CC(C)C)NC(=O)[C@@H](N)CCCNC(=N)N)NC(=O)[C@H](CCCCNC(=O)[C@H](CCCNC(=N)N)NC(=O)[C@H](Cc1ccc(O)cc1)NC(=O)[C@H](CC(C)C)NC(=O)[C@@H](N)CCCNC(=N)N)NC(=O)[C@H](CCCNC(=N)N)NC(=O)[C@H](Cc1ccc(O)cc1)NC(=O)[C@H](CC(C)C)NC(=O)[C@@H](N)CCCNC(=N)N)C(N)=O [K5R] (HELM PEPTIDE1{R.L.Y.R.K.K.K.K.[am]}|PEPTIDE2{R.L.Y.R}|PEPTIDE3{R.L.Y.R}|PEPTIDE4{R.L.Y.R}|PEPTIDE5{R.L.Y.R}$PEPTIDE1,PEPTIDE2,8:R3-4:R2|PEPTIDE1,PEPTIDE3,7:R3-4:R2|PEPTIDE1,PEPTIDE4,6:R3-4:R2|PEPTIDE1,PEPTIDE5,5:R3-4:R2$$$V2.0; N-terminus assumed)
2.4 µM	1.8 µM	0.7 µM	1.1 µM	1.5 µM	0.9 µM	> 500 µM	10.2 µM	1.7 µM	1.3 µM	6.5 µM	5.4 µM	3.1 µM	2.0 µM	19.2 µM	8.1 µM	0.7 µM	0.7 µM	2.3 µM	0.9 µM	CC(C)C[C@H](NC(=O)[C@@H](N)CCCNC(=N)N)C(=O)N[C@@H](Cc1ccc(O)cc1)C(=O)N[C@@H](CCCNC(=N)N)C(=O)NCCC[C@H](NC(=O)[C@H](CCCNC(=O)[C@H](CCCNC(=N)N)NC(=O)[C@H](Cc1ccc(O)cc1)NC(=O)[C@H](CC(C)C)NC(=O)[C@@H](N)CCCNC(=N)N)NC(=O)[C@H](CCCNC(=O)[C@H](CCCNC(=N)N)NC(=O)[C@H](Cc1ccc(O)cc1)NC(=O)[C@H](CC(C)C)NC(=O)[C@@H](N)CCCNC(=N)N)NC(=O)[C@H](CCCNC(=O)[C@H](CCCNC(=N)N)NC(=O)[C@H](Cc1ccc(O)cc1)NC(=O)[C@H](CC(C)C)NC(=O)[C@@H](N)CCCNC(=N)N)NC(=O)[C@H](CCCNC(=N)N)NC(=O)[C@H](Cc1ccc(O)cc1)NC(=O)[C@H](CC(C)C)NC(=O)[C@@H](N)CCCNC(=N)N)C(N)=O [O5R] (HELM PEPTIDE1{R.L.Y.R.[Orn].[Orn].[Orn].[Orn].[am]}|PEPTIDE2{R.L.Y.R}|PEPTIDE3{R.L.Y.R}|PEPTIDE4{R.L.Y.R}|PEPTIDE5{R.L.Y.R}$PEPTIDE1,PEPTIDE2,8:R3-4:R2|PEPTIDE1,PEPTIDE3,7:R3-4:R2|PEPTIDE1,PEPTIDE4,6:R3-4:R2|PEPTIDE1,PEPTIDE5,5:R3-4:R2$$$V2.0; N-terminus assumed)
0.8 µM	0.7 µM	0.6 µM	1.1 µM	0.7 µM	1.0 µM	1.3 µM	1.0 µM	0.8 µM	0.7 µM	0.6 µM	0.6 µM	0.7 µM	0.9 µM	1.0 µM	0.6 µM	0.7 µM	0.8 µM	0.8 µM	0.7 µM	CC(=O)N[C@@H](CCCCNC(=O)[C@H](CCCNC(=N)N)NC(=O)[C@H](Cc1ccc(O)cc1)NC(=O)[C@H](CC(C)C)NC(=O)[C@@H](N)CCCNC(=N)N)C(=O)N[C@@H](CCCCNC(=O)[C@H](CCCNC(=N)N)NC(=O)[C@H](Cc1ccc(O)cc1)NC(=O)[C@H](CC(C)C)NC(=O)[C@@H](N)CCCNC(=N)N)C(=O)N[C@@H](CCCCNC(=O)[C@H](CCCNC(=N)N)NC(=O)[C@H](Cc1ccc(O)cc1)NC(=O)[C@H](CC(C)C)NC(=O)[C@@H](N)CCCNC(=N)N)C(N)=O [K3R]
